Drawing on US20240092784A1, “CONDENSED HETEROCYCLIC COMPOUND” (NISSAN CHEMICAL CORPORATION, priority 2020, published 2024), this text covers IC50 for 21 compounds.

Assay [1] deals with T1, human SPR (Homo sapiens (Human), UniProt P35270). Briefly: Evaluation Example 1: Measurement of human SPR inhibitory activity (sepiapterin absorbance at 420 nm). The settings on record: 240 minutes at room temperature. The assay is classed as biochemical. How it is done: Human SPR was prepared as described below. The full-length human SPR (1-261) cDNA was purchased from Eurofins Genomics as an artificially synthesized plasmid containing a DNA sequence optimized for the E. coli expression system so that the sequence of the expressed protein after transcription and translation matches the sequence described in UniprotKB (P35270).
T1 sequence (P35270 whole entry, the tested form may be a part): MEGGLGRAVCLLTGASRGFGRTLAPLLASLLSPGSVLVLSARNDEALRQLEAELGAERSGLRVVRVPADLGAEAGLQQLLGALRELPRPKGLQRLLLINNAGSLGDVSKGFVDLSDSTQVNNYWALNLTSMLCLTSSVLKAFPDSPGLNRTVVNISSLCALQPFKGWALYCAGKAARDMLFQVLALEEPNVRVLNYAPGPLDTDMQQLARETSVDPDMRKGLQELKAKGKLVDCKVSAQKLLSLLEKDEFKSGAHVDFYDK
Linearized insert and vector were prepared by PCR using primers designed for amplification of human SPR cDNA and primers designed to contain the thrombin recognition sequence of pET28a (Novagen) and a polyhistidine tag. Cloning was performed using In-Fusion (registered trademark) HD Cloning Kit (TaKaRa) to thereby construct a human SPR expression plasmid. The resultant human SPR expression plasmid was transformed into BL21 (DE3) competent cells (INVITROGEN).
The cells were inoculated into LB medium (1% triptone, 0.5% yeast extract, 1% sodium chloride) containing […] of kanamycin, and then precultured at 37° C. overnight. The precultured cells were inoculated into TB medium (1.2% triptone, 2.4% yeast extract, 9.4% dipotassium hydrogen phosphate, 2.2% potassium dihydrogen phosphate, 0.8% glycerin) containing […] of kanamycin, and the cultured at 37° C., to thereby induce SPR expression with 0.5 mM IPTG for four hours. After the induction, the cells were collected by centrifugation at 6,000 G for 30 minutes and washed with PBS, and the washing was discarded. The washed cells were suspended in buffer solution A (20 mM MES, pH 6.5, 100 mM sodium chloride, 1 mM DTT, 5 mM imidazole). Subsequently, the cell suspension was subjected to ultrasonic treatment to thereby homogenize the cells. The cell homogenate was clarified by centrifugation at 30,000 G for 60 minutes and then filtered with a […]. The filtrate was allowed to pass through HisTrapFF 5 mL column (GE Healthcare). The resin was washed with buffer A, and then gradient elution was performed with buffer B (20 mM MES, pH 6.5, 100 mM sodium chloride, 1 mM DTT, 500 mM imidazole). Thrombin was added to a fraction containing the SPR protein, and the mixture was dialyzed in buffer A overnight, to thereby cleave the tag. After removal of the thrombin by with Benzamidine Sepharose 4 FF (GE Healthcare), the resultant product was allowed to pass through the HisTrapFF 5 mL column, to thereby remove the tag, followed by concentration with Amicon Ultra 10,000 NMWL (Merck Millipore). The concentrate was purified by gel filtration using HiLoad 16/60 Superdex 75 pg (GE Healthcare) equilibrated with buffer C (20 mM MES, pH 6.5, 100 mM sodium chloride, 1 mM DTT). The fraction containing SPR protein was concentrated and then cryopreserved at −80° C.
Human SPR inhibitory activity was measured by using a 384-well low adsorption clear plate (Greiner) with buffer D containing 100 mM Tris-HCl (pH 7.5) (Thermo Fisher Scientific) and 0.01% bovine serum albumin (Sigma). A compound was diluted with DMSO to a concentration of 1 mM, and a 1 μL aliquot of the preparation was diluted with 250 μL of buffer D. The thus-diluted compound was dispensed into the 384-well plate at […]. Thereafter, human SPR was diluted with buffer D to 200 ng/mL and then dispensed into the 384-well plate at 20 μL/well. Subsequently, 40 μL of ultrapure water containing 120 μM Sepiapterin (WuXi AppTec) and 120 μM NADPH (Nacalai) was added to each well, and mixed with a vortex mixer, to thereby initiate the reaction. The reaction mixture was incubated at room temperature for 240 minutes, and the reaction was terminated by addition of 10 μL of ultrapure water containing 2% formic acid (Nacalai). In order to determine the amount of sepiapterin after termination of the reaction, the absorbance at 420 nm was measured by applying the 384-well plate to EnSpire multimode plate reader (Perkin Elmer). The percent inhibition (%) of human SPR by the test compound was calculated by the following formula. […]

The target of assay [2] is T1, human SPR. Briefly: Evaluation Example 2: Measurement of human SPR inhibitory activity (seven concentrations, sepiapterin absorbance at 420 nm). The class given is biochemical. The following applies: Evaluation Example 2, seven concentrations 0.14 nM to 100 nM, 240 minutes at room temperature, read-out: IC50. Put shortly:
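Reactions ran 240 min at room temperature in 100 mM Tris-HCl pH 7.5 with 0.01% BSA. They contained tag-cleaved, E. coli-expressed full-length human SPR (diluted to 150 ng/mL), seven compound concentrations from 0.14 to 100 nM, and sepiapterin/NADPH added as a 120 μM/160 μM solution. Inhibition was calculated from sepiapterin absorbance at 420 nm.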

One may read the IC50 as the concentration that inhibits the measured activity by half. For `COc1cncc(Nc2cc3n(CC(C)(C)C)c(=O)c(C(=O)NC4CC4)c(O)n3n2)n1` [Synthesis Example 17, N-Cyclopropyl-7-hydroxy-2-((6-methoxypyrazin-2-yl)amino)-4-neopentyl-5-oxo-4,5-dihydropyrazolo[1,5-a]pyrimidine-6-carboxamide], the IC50 against human SPR [1] is < 1000 nM; on human SPR [2], 0.76 nM.

On to `CC(C)(C)Cn1c(=O)c(C(=O)NC2CC2)c(O)n2nc(Nc3cnc(C(N)=O)cn3)cc12` [Synthesis Example 21, 2-((5-Carbamoylpyrazin-2-yl)amino)-N-cyclopropyl-7-hydroxy-4-neopentyl-5-oxo-4,5-dihydropyrazolo[1,5-a]pyrimidine-6-carboxamide], for which the IC50 is < 1000 nM on human SPR [1] and 0.96 nM at human SPR [2].

Turning to `CC(C)Cn1c(=O)c(C(=O)NC2CC2)c(O)n2nc(Nc3cnccn3)cc12` [Synthesis Example 23, N-Cyclopropyl-7-hydroxy-4-isobutyl-5-oxo-2-(pyrazin-2-ylamino)-4,5-dihydropyrazolo[1,5-a]pyrimidine-6-carboxamide], the values for the IC50 against human SPR [1] and at human SPR [2] were < 1000 nM and 1.91 nM, respectively.

Regarding `CC(C)(C)Cn1c(=O)c(C(=O)NC2CC2)c(O)n2nc(-c3cccnc3N)cc12` [Synthesis Example 14, 2-(2-Aminopyridin-3-yl)-N-cyclopropyl-7-hydroxy-4-neopentyl-5-oxo-4,5-dihydropyrazolo[1,5-a]pyrimidine-6-carboxamide], the IC50 was < 1000 nM at human SPR [1] and 1.19 nM at human SPR [2].

As for `CC(C)(C)Cn1c(=O)c(C(=O)NC2CC2)c(O)n2nc(N)cc12` [Synthesis Example 18, 2-Amino-N-cyclopropyl-7-hydroxy-4-neopentyl-5-oxo-4,5-dihydropyrazolo[1,5-a]pyrimidine-6-carboxamide], the IC50 is < 1000 nM against human SPR [1] and 0.89 nM at human SPR [2].

Turning to `CC(C)(C)Cn1c(=O)c(C(=O)NC2CC2)c(O)n2nc(Nc3cnc(C(F)(F)F)cn3)cc12` [Synthesis Example 15, N-Cyclopropyl-7-hydroxy-4-neopentyl-5-oxo-2-((5-(trifluoromethyl)pyrazin-2-yl)amino)-4,5-dihydropyrazolo[1,5-a]pyrimidine-6-carboxamide], the IC50 against human SPR [1] is < 1000 nM; on human SPR [2] it was 1.61 nM.

Regarding `CC(C)(C)Cn1c(=O)c(C(=O)NC2CC2)c(O)n2nc(C(=O)O)cc12` [Synthesis Example 2, 6-(Cyclopropylcarbamoyl)-7-hydroxy-4-neopentyl-5-oxo-4,5-dihydropyrazolo[1,5-a]pyrimidine-2-carboxylic acid], at human SPR [1], the IC50 was < 1000 nM.

Regarding `COc1ccnc(Nc2cc3n(CC(C)(C)C)c(=O)c(C(=O)NC4CC4)c(O)n3n2)c1` [Synthesis Example 195, N-Cyclopropyl-7-hydroxy-2-((4-methoxypyridin-2-yl)amino)-4-neopentyl-5-oxo-4,5-dihydropyrazolo[1,5-a]pyrimidine-6-carboxamide], at human SPR [1], the IC50 was < 1000 nM.

With `CC(C)(C)Cn1c(=O)c(C(=O)NC2CC2)c(O)n2nc(Nc3cnccn3)cc12` [Synthesis Example 13, N-Cyclopropyl-7-hydroxy-4-neopentyl-5-oxo-2-(pyrazin-2-ylamino)-4,5-dihydropyrazolo[1,5-a]pyrimidine-6-carboxamide], the IC50 against human SPR [1] was < 1000 nM; on human SPR [2], 1.43 nM.

Consider `CC(C)Cn1c(=O)c(C(=O)NC2CC2)c(O)n2ncc(C=O)c12` [Synthesis Example 7, N-Cyclopropyl-3-formyl-7-hydroxy-4-isobutyl-5-oxo-4,5-dihydropyrazolo[1,5-a]pyrimidine-6-carboxamide], for which the IC50 on human SPR [1] is < 1000 nM.

For `CC1(Cn2c(=O)c(C(=O)NC3CC3)c(O)n3nc(-c4cccnc4N)cc23)CCOCC1` [Synthesis Example 29, 2-(2-Aminopyridin-3-yl)-N-cyclopropyl-7-hydroxy-4-((4-methyltetrahydro-2H-pyran-4-yl)methyl)-5-oxo-4,5-dihydropyrazolo[1,5-a]pyrimidine-6-carboxamide], the IC50 against human SPR [1] was < 1000 nM.

With `CC(C)(C)Cn1c(=O)c(C(=O)NC2CCC2)c(O)n2nc(Br)cc12` [Synthesis Example 25, 2-Bromo-N-cyclobutyl-7-hydroxy-4-neopentyl-5-oxo-4,5-dihydropyrazolo[1,5-a]pyrimidine-6-carboxamide], the IC50 against human SPR [1] is < 1000 nM.

For the compound `CC(C)Cn1c(=O)c(C(=O)NC2CC2)c(O)n2nc(Br)cc12` [Synthesis Example 22, 2-Bromo-N-cyclopropyl-7-hydroxy-4-isobutyl-5-oxo-4,5-dihydropyrazolo[1,5-a]pyrimidine-6-carboxamide], the IC50 on human SPR [1] was < 1000 nM.

`CC(C)Cn1c(=O)c(C(=O)NC2CC2)c(O)n2ncc(Br)c12` [Synthesis Example 104, 3-Bromo-N-cyclopropyl-7-hydroxy-4-isobutyl-5-oxo-4,5-dihydropyrazolo[1,5-a]pyrimidine-6-carboxamide]: the IC50 on human SPR [1] was < 1000 nM.

Turning to `CC(C)(C)Cn1c(=O)c(C(=O)NC2CC2)c(O)n2nc(NC(=O)OC(C)(C)C)cc12` [Synthesis Example 3, Tert-butyl (6-(cyclopropylcarbamoyl)-7-hydroxy-4-neopentyl-5-oxo-4,5-dihydropyrazolo[1,5-a]pyrimidin-2-yl)carbamate], the IC50 on human SPR [1] is < 1000 nM.

With `CC1(Cn2c(=O)c(C(=O)NC3CC3)c(O)n3nc(Nc4cnccn4)cc23)CCOCC1` [Synthesis Example 28, N-Cyclopropyl-7-hydroxy-4-((4-methyltetrahydro-2H-pyran-4-yl)methyl)-5-oxo-2-(pyrazin-2-ylamino)-4,5-dihydropyrazolo[1,5-a]pyrimidine-6-carboxamide], the IC50 against human SPR [1] was < 1000 nM.

`CC(C)(C)Cn1c(=O)c(C(=O)NC2CC2)c(O)n2nc(Br)cc12` [Synthesis Example 11, 2-Bromo-N-cyclopropyl-7-hydroxy-4-neopentyl-5-oxo-4,5-dihydropyrazolo[1,5-a]pyrimidine-6-carboxamide]: on human SPR [1], the IC50 is < 1000 nM.

`CCOC(=O)c1cnn2c(O)c(C(=O)NC3CC3)c(=O)n(CC(C)C)c12` [Synthesis Example 5, Ethyl 6-(cyclopropylcarbamoyl)-7-hydroxy-4-isobutyl-5-oxo-4,5-dihydropyrazolo[1,5-a]pyrimidine-3-carboxylate]: the IC50 on human SPR [1] was < 1000 nM.

With `O=C(NC1CC1)c1c(O)n2ncc(C3=CCOCC3)c2n(CC2CCOCC2)c1=O` [Synthesis Example 35, N-Cyclopropyl-3-(3,6-dihydro-2H-pyran-4-yl)-7-hydroxy-5-oxo-4-((tetrahydro-2H-pyran-4-yl)methyl)-4,5-dihydropyrazolo[1,5-a]pyrimidine-6-carboxamide], the IC50 against human SPR [1] was < 1000 nM.

As to `CC1(Cn2c(=O)c(C(=O)NC3CCC3)c(O)n3nc(Nc4cnccn4)cc23)CCOCC1` [Synthesis Example 31, N-Cyclobutyl-7-hydroxy-4-((4-methyltetrahydro-2H-pyran-4-yl)methyl)-5-oxo-2-(pyrazin-2-ylamino)-4,5-dihydropyrazolo[1,5-a]pyrimidine-6-carboxamide], the IC50 against human SPR [1] is < 1000 nM.

Regarding `CC(C)Cn1c(=O)c(C(=O)NC2CC2)c(O)n2ncc(/C=C/C(=O)O)c12` [Synthesis Example 9, (E)-3-(6-(Cyclopropylcarbamoyl)-7-hydroxy-4-isobutyl-5-oxo-4,5-dihydropyrazolo[1,5-a]pyrimidin-3-yl)acrylic acid], the IC50 against human SPR [1] was < 1000 nM.
